Where two headings read alike, the source gives them in different places.
Experiments:
human NK-3 receptor [1] = target: T1, human NK-3 receptor (Homo sapiens (Human), UniProt P29371); experiment: Aequorin functional assay with human NK-3 receptor (antagonist testing vs NKA); assay type: cell-based; conditions: CHO cells, NKA at EC80 (3 nM); read-out: Functional assay: Aequorin assay with human NK-3 receptor hNK-3-AEQ (antagonist IC50)
Procedure, shortened: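 CHO cells co-expressing human NK-3 receptor and apoaequorin were pre-incubated 3 min with compound, then challenged with NKA at EC80 (3 nM). Coelenterazine-dependent luminescence was integrated over 90 s, and antagonism was derived from concentration-dependent inhibition of the calcium response.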

human NK-3 receptor [2] = target: T1, human NK-3 receptor; experiment: 3H-SB222200 binding competition assay with human NK-3 receptor
Procedure, shortened: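 Membranes from CHO cells stably expressing the receptor were incubated with 5 nM 3H-SB222200 and varying compound concentrations in HEPES 25 mM/NaCl 0.1 M/CaCl2 1 mM/MgCl2 5 mM/BSA 0.5%/saponin 10 μg/ml, pH 7.4. Bound radioligand was quantified as membrane-associated radioactivity after filtration.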

[3] = tested on: circulating levels of luteinizing hormone (LH); experiment: Castrated male rat model, circulating luteinizing hormone (LH); assay type: in vivo; conditions: single oral dose less than or equal to 30 mg/kg, p<0.05
Experimental: Castrated Male Rat Model to Assess the Effect of Compound of Invention on Circulating Levels of Luteinizing Hormone (LH)
The effect of compounds of the invention to inhibit luteinizing hormone (LH) secretion is determined by the following biological studies.
In humans and rodents, castration is well-precedented to permit heightened, persistent GnRH signaling and consequent elevation of circulating LH. Thus, a castrated rat model is used to provide a broad index for measurement of LH inhibition as a marker of test compound inhibition of the GnRH signaling pathway.
Castrated adult male Sprague-Dawley (SD) rats (150-175 g,) were purchased from Janvier (St Berthevin, France). All animals were housed 2 per cage in a temperature-controlled room (22±2° C.) and 50±5% relative humidity with a 12 hour/12 hour light/dark cycles (lights off at […]). The animals were allowed 3 weeks of postoperative recovery prior to study. Animals were handled on a daily basis. Standard diet and tap water were provided ad libitum. Animal cage litters were changed once a week. On the study day, animals were acclimated to the procedure room for a period of one hour prior to the initiation of the experiment.
Compounds of the invention were formulated in 0.5% methyl cellulose.
After basal sampling (TO) a single dose of compounds of the invention or vehicle was administrated orally to rats. Blood samples were then collected at several time points post dosing (45, 90, 150, 300 and 420 minutes). Blood samples were obtained via tail vein bleed, drawn into EDTA-containing tubes and centrifuged immediately. Plasma samples were collected and stored in a −80° C. freezer until assayed. Serum LH levels were determined using radioimmunoassay kit from RIAZEN—Rat L H, Zentech (Liege, Belgium). Baseline was defined as the initial basal blood sample.

[4] = tested on: body temperature (pyrogenic response to feeding); experiment: Thermoregulation in OVX ewes; assay type: in vivo, ewe; conditions: 1 mg/kg intravenous bolus
Source text: In Vivo Assay in OVX Ewes-Activity in Thermoregulation Experimental Methods: Evaluation of Thermoregulation in OVX Ewe […] After 4 months recovery, animals were acclimatised to housing in single pens for a period of 7 days with ad libitum access to water and […] lucerne hay. One day prior to experimentation, the animals received a jugular vein cannula ([…], Tuta Laboratories, Lane Cove, Australia). The cannulo were kept patent with heparinised saline. On the day of the experiment, compound n^o 5 of the present invention was formulated in physiological saline with 9% 2-hydroxypropyl-β-cyclodextrin at a concentration of 2 mg/mL. […] Animals were fed at 12 h00. Rectal temperatures were monitored with a probe at hourly intervals throughout the experiment, starting at 7 h40 and concluding at 15 h40.

[5] = tested on: hot flashes in postmenopausal women; experiment: Phase 2a clinical trial, menopausal hot flashes; assay type: in vivo, human
Experimental: Clinical Evaluation of compound n^o 5 for the Treatment of Menopausal Hot Flashes Objectives: The study objective is to evaluate the effect of compound n^o 5 on the severity and frequency of hot flashes in postmenopausal women. Design and Setting: The Phase 2a clinical trial was conducted in 80 patients, divided over 2 treatment groups of 40 patients each. […] The Phase 2a trial was double blind and randomized. This Phase 2a trial was conducted on healthy menopausal women (40-65 y) experiencing at least 49 moderate or severe hot flashes or night sweats over a period of 7 consecutive days in the screening period (maximum of 4 weeks). The study was conducted on an ambulatory basis where patients were asked to visit the clinical site on the first day of dosing and at weeks 4, 8, 12 during the treatment period with a follow-up visit 2-3 weeks after conclusion of dosing. Hot flashes were to be reported daily in the morning and the evening using an electronic diary tool. These reported events were used to calculate the Hot Flash Frequency and the Hot Flash Score. The weekly number of hot flashes was calculated in two ways: cumulatively for all severity grades, and cumulatively but leaving out the number of mild hot flashes. Hot Flash Frequencies were calculated for weeks 4 and 12. The Hot Flash Score (HFS) is a composite score combining both frequency and severity. This score is an accepted method to assess the overall severity of the hot flash burden and is calculated weekly. The score is a general measure of the number and severity of all hot flashes occurred during a given time period. The Hot Flash Score (based on severity and frequency) is calculated as follows: • day-score=(number of mild hot flashes/day×1)+(number of moderate hot flashes/day×2)+(number of severe hot flashes/day×3) • The weekly hot flash score is calculated: […] Higher scores indicate worse symptoms.

[6] = 90 mg BID, postmenopausal women
[7] = Baseline, 90 mg BID group, moderate and severe hot flashes

T1 sequence (P29371 whole entry): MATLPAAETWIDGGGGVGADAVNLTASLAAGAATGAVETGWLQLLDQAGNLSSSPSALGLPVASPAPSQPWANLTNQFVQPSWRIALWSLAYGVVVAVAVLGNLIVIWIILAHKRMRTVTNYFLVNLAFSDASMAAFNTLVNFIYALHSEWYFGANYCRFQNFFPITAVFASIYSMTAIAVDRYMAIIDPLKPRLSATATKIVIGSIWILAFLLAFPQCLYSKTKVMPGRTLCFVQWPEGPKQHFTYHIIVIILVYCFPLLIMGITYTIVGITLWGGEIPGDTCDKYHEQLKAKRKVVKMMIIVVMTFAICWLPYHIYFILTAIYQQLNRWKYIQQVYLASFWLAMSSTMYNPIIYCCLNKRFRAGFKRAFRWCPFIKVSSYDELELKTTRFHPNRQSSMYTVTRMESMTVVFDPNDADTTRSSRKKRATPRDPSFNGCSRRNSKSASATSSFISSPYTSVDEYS

Cc1nsc(-c2nnc3n2CCN(C(=O)c2ccc(F)cc2)[C@@H]3C)n1 [Compound 5, (R)-(4-fluorophenyl)(8-methyl-3-(3-methyl-1,2,4-thiadiazol-5-yl)-5,6-dihydro-[1,2,4]triazolo[4,3-a]pyrazin-7(8H)-yl)methanone]
IC50 (human NK-3 receptor [1]): 18 nM
Ki (human NK-3 receptor [2]; Table 2, 5 nM 3H-SB222200, CHO membranes, read-out: Competitive binding assay with human NK-3 receptor hNK-3 (Ki)): 23 nM
Ki (human NK-3 receptor [2]; Table 3 (selectivity table), read-out: hNK-3 (Ki)): 23 nM
circulating LH levels [3]: significantly suppressed
pyrogenic response to feeding [4]: not observed
body temperature at the 12 h40 time point ([4]; after feeding at 12 h00, mean±SEM): 38.9±0.2 °C
Frequency of hot flashes in comparison of placebo [5, 6]: significantly reduced
Score of hot flashes in comparison of placebo [5, 6]: significantly reduced
Hot Flash Score (mean) [5, 7]: 29.08
Hot Flashes Frequency (mean) [5, 7]: 11.84
Hot Flash Score (mean) ([5]; Week 4, 90 mg BID oral): 2.96
Hot Flashes Frequency (mean) ([5]; Week 4, 90 mg BID oral): 1.35
Hot Flash Score (mean) ([5]; Week 12, 90 mg BID oral): 1.70
Hot Flashes Frequency (mean) ([5]; Week 12, 90 mg BID oral): 0.79

From patent US20240199618A1, “NOVEL N-ACYL-[3-SUBSTITUTED]-[8-SUBSTITUTED]-5,6-DIHYDRO-[1,2,4]TRIAZOLO[4,3-a]PYRAZINES AS SELECTIVE NK-3 RECEPTOR ANTAGONISTS, PHARMACEUTICAL COMPOSITION, METHODS FOR USE IN NK-3 RECEPTOR-MEDIATED DISORDERS” (Ogeda SA, priority 2013, published 2024)
